The results in this text go back to ChEMBL document CHEMBL1909046, “DrugMatrix in vitro pharmacology data”.

The structures appear in SMILES notation.

For one assay, the target named is Melanocortin receptor 5 (Homo sapiens, UniProt P33032). In kind it is cell membranes, HEK293, Membrane. Also: in other assays of this panel Not Active means under 50% inhibition at 10 µM.
Assay [1] has as its target T1, Neuropeptide Y receptor type 2 (Homo sapiens, UniProt P49146). Also: in other assays of this panel Not Active means under 50% inhibition at 10 µM.
T1 sequence (P49146 whole entry): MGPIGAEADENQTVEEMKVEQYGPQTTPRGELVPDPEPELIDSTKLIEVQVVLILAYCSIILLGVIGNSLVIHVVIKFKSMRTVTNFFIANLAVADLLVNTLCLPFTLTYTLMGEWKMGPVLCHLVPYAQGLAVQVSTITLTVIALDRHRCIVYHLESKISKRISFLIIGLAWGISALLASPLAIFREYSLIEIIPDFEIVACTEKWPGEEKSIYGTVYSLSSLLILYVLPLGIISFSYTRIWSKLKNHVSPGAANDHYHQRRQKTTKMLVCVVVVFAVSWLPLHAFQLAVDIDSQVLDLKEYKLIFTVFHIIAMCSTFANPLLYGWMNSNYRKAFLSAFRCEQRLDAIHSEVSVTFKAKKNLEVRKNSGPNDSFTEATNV
In kind it is cell membranes, Membrane. The settings on record: kan-ts.

The target of the next assay is Cannabinoid receptor 1 (Homo sapiens, UniProt P21554). In kind it is cell membranes, Membrane. The settings on record: chem-1. Also: in other assays of this panel Not Active means under 50% inhibition at 10 µM.
The target of assay [2] is Protein kinase C alpha type (Homo sapiens, UniProt P17252). The assay is classed as cell-based. As to conditions: sf9.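 Also: inhibition of PKCalpha kinase activity measured in an enzyme assay with histone as the phosphorylation substrate; in other assays of this panel Not Active means under 50% inhibition at 10 µM.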
A further assay addresses T2, Substance-K receptor (Homo sapiens, UniProt P21452).
T2 sequence (P21452 whole entry): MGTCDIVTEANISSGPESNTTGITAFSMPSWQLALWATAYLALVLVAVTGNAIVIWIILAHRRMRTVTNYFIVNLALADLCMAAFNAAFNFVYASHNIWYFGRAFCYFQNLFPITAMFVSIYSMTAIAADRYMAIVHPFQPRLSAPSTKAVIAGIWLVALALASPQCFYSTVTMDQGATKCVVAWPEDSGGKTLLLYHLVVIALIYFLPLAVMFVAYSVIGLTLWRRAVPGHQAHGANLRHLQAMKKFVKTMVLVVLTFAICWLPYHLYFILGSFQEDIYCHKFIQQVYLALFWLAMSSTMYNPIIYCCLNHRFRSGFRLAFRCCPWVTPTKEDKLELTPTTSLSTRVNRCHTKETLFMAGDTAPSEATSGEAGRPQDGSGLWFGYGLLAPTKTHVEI
The assay is classed as cell membranes, CHO, Membrane. The settings on record: for Ki: read-out: Ki.

Assay [3] addresses T3, Vasoactive intestinal polypeptide receptor 1 (Homo sapiens, UniProt P32241).
T3 sequence (P32241 whole entry): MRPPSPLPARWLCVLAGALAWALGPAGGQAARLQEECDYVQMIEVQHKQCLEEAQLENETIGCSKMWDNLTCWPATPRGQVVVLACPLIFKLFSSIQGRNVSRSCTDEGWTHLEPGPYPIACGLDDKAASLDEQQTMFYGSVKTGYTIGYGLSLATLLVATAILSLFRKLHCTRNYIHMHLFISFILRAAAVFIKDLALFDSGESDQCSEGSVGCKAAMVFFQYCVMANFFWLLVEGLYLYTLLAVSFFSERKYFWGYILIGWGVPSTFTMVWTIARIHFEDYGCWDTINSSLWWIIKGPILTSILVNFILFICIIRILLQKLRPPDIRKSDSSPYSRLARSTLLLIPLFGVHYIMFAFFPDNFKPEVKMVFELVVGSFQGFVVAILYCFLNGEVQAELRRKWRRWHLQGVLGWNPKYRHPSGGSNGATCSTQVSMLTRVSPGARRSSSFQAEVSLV
The assay is classed as cell membranes, Membrane. The settings on record: ht-29.

The target of assay [4] is Protein phosphatase 3 catalytic subunit alpha (Homo sapiens, UniProt Q08209). Further details: species or system Escherichia coli.
Assay [5] deals with Aldo-keto reductase family 1 member B1 (Rattus norvegicus, UniProt P07943). The assay is classed as tissue-based, Lens of camera-type eye.
The target in assay [6] is 5-hydroxytryptamine receptor 1B (Rattus norvegicus, UniProt P28564). In kind it is cell membranes, Wistar, Cerebral cortex, Membrane. As to conditions: for Ki: read-out: Ki.
In assay [7] the target is T4, Muscarinic acetylcholine receptor M2 (Homo sapiens, UniProt P08172). Also: in other assays of this panel Not Active means under 50% inhibition at 10 µM.
T4 sequence (P08172 whole entry): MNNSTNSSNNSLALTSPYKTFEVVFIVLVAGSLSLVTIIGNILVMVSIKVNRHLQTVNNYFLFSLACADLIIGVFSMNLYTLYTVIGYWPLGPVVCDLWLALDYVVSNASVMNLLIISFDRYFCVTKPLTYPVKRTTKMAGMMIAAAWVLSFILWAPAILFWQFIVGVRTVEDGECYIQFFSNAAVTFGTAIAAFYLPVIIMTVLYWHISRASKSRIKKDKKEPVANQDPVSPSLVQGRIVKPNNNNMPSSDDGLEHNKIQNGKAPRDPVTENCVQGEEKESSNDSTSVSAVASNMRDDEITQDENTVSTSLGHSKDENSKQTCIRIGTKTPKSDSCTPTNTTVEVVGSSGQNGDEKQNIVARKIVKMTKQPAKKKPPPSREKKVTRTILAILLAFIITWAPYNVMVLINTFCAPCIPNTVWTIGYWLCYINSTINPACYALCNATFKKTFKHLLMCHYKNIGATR
In kind it is cell membranes, CHO-K1, Membrane. The settings on record: for Ki: read-out: Ki.

A further assay deals with Melanocortin receptor 4 (Homo sapiens, UniProt P32245). The assay is classed as cell membranes, Membrane. The settings on record: hek293.
Assay [8] can be described thus: DRUGMATRIX: Glutamate, Kainate radioligand binding (ligand: [3H] Kainic acid). The settings on record: Not Active = under 50% inhibition at 10 µM. In kind it is cell membranes, Rattus norvegicus, Wistar, Brain, Membrane.
Assay [9] can be described thus: DRUGMATRIX: ATPase, Na+/K+ enzyme inhibition (substrate: ATP). The assay is classed as tissue-based, Sus scrofa, Heart. As to conditions: Not Active = under 50% inhibition at 10 µM.
Assay [10] is described as follows: DRUGMATRIX: Tumor Necrosis Factor (TNF), Non-Selective radioligand binding (ligand: [125I] TNF-alpha). The assay is classed as cell membranes, Membrane. The settings on record: u-937; Not Active = under 50% inhibition at 10 µM.
Assay [11] can be described thus: DRUGMATRIX: GABAA, Muscimol, Central radioligand binding (ligand: [3H] Muscimol). In kind it is cell membranes, Rattus norvegicus, Wistar, Brain, Membrane. As to conditions: Not Active = under 50% inhibition at 10 µM.
Assay [12] in a line: DRUGMATRIX: Potassium Channel [KATP] radioligand binding (ligand: [3H] Glyburide). The settings on record: hit-t15; Not Active = under 50% inhibition at 10 µM. The assay is classed as cell membranes, Membrane.
The nature of assay [13]: DRUGMATRIX: Phorbol Ester radioligand binding (ligand: [3H] PDBu). The settings on record: Not Active = under 50% inhibition at 10 µM. The assay is classed as cell membranes, Mus musculus, ICR, Brain, Membrane.

Sequence of Cannabinoid receptor 1 (P21554 whole entry): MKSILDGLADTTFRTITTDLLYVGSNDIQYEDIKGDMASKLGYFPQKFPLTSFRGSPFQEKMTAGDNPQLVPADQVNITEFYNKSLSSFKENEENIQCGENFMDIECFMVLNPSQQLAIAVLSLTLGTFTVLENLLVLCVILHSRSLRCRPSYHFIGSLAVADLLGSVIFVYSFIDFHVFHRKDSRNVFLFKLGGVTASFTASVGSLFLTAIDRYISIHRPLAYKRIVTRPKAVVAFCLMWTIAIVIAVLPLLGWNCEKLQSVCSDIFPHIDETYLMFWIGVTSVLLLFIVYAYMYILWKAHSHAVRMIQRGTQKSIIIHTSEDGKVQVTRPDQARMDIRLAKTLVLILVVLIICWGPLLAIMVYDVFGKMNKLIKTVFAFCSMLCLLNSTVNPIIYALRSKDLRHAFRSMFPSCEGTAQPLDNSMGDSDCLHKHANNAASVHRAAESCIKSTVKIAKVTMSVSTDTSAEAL
Sequence of 5-hydroxytryptamine receptor 1B (P28564 whole entry): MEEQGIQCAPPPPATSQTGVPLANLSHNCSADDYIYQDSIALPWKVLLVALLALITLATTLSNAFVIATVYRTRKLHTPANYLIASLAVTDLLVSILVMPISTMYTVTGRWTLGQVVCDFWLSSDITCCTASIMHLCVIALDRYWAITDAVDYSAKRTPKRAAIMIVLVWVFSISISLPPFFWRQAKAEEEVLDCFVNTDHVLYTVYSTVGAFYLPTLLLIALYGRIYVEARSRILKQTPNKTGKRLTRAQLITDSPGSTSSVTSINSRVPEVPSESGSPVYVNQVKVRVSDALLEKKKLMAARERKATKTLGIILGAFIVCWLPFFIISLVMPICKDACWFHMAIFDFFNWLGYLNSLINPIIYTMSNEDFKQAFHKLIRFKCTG
Sequence of Melanocortin receptor 4 (P32245 whole entry): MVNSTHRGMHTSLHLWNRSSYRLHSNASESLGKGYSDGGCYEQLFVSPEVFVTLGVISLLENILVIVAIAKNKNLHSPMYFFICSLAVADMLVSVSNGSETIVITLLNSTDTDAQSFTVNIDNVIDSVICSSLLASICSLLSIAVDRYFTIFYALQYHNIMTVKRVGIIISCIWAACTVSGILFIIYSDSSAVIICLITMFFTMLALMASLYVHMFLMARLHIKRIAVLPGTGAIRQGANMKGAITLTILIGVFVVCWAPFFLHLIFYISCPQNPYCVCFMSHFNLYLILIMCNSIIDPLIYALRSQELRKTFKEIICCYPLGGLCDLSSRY
Sequence of Melanocortin receptor 5 (P33032 whole entry): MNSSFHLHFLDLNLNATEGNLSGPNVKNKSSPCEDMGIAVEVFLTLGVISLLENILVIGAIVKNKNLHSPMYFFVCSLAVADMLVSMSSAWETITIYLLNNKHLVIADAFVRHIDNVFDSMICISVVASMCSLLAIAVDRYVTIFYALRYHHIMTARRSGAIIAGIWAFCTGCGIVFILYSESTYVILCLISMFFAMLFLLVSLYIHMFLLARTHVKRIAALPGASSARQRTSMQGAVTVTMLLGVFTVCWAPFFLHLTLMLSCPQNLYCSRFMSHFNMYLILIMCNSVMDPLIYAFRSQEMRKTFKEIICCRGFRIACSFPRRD

By IC50 is commonly meant the midpoint of a concentration-inhibition curve. In general, Ki refers to the equilibrium dissociation constant of an inhibitor or competing ligand from its target. Turning to `COc1ccc(CCN2CCC(Nc3nc4ccccc4n3Cc3ccc(F)cc3)CC2)cc1` [ASTEMIZOLE], the concentration for half-maximal inhibition (IC50) is 2260 nM on Melanocortin receptor 5 (read-out: IC50); “Not Active” in [1]; “Not Active” against Cannabinoid receptor 1; “Not Active” in assay [2]; 2990 nM on Substance-K receptor (read-out: IC50); “Not Active” in [3]. In addition, the half-inhibitory concentration (IC50) entry in assay [4] is “Not Active”; in [5], “Not Active”; in assay [6] (read-out: IC50) it was 1390 nM. Further, the Ki at Melanocortin receptor 5 (read-out: Ki) was determined as 2120 nM; at Substance-K receptor, 995 nM; in assay [6], 630 nM.

With `CN(C)CCCN1c2ccccc2CCc2ccc(Cl)cc21` [CLOMIPRAMINE], the concentration for half-maximal inhibition (IC50) entry (at Melanocortin receptor 5 (hek293); in [1]; against Cannabinoid receptor 1; in assay [2]; at Substance-K receptor (cho); in assay [3]) was “Not Active” in each case. For the same compound, the IC50 result in assay [4] is “Not Active”; in [7] (read-out: IC50), 241 nM; in assay [5], “Not Active”; at Melanocortin receptor 4, “Not Active”; in [6] it was “Not Active”. Also, the Ki in assay [7] came to 86 nM.

Consider `Clc1ccccc1C(c1ccccc1)(c1ccccc1)n1ccnc1` [CLOTRIMAZOLE], for which the IC50 result against Melanocortin receptor 5 (hek293) was “Not Active”; in [1] it was “Not Active”; on Cannabinoid receptor 1, “Not Active”; in [2], “Not Active”; at Substance-K receptor (read-out: IC50), 10100 nM; in [3], “Not Active”. The IC50 result in assay [4] is “Not Active”; in assay [7] (read-out: IC50) it was 14500 nM; in assay [5] it was “Not Active”; against Melanocortin receptor 4 it was “Not Active”; in assay [6] (read-out: IC50), 27300 nM. Besides, the Ki is 3380 nM at Substance-K receptor, 5170 nM in assay [7] and 12400 nM in assay [6].

With `O=C(CCCN1CCC(O)(c2ccc(Cl)cc2)CC1)c1ccc(F)cc1` [HALOPERIDOL], the IC50 result (against Melanocortin receptor 5 (hek293); in [1]; against Cannabinoid receptor 1; in [2]; on Substance-K receptor (cho); in assay [3]) was “Not Active” throughout. Further, the half-inhibitory concentration (IC50) entry (in assay [4]; in assay [7] (cho-k1); in assay [5]; against Melanocortin receptor 4; in [6]) was “Not Active” throughout.

On to `CN1CCN2c3ccccc3Cc3ccccc3C2C1` (centres undefined) [MIANSERIN], for which the IC50 entry (against Melanocortin receptor 5 (hek293); in assay [1]; at Cannabinoid receptor 1; in [2]; against Substance-K receptor (cho); in assay [3]) was “Not Active” each time. Besides, the half-maximal inhibitory concentration (IC50) result (in [4]; in assay [5]; on Melanocortin receptor 4; in assay [6]) was “Not Active” in each case.

For the compound `O=C1c2c(O)ccc(O)c2C(=O)c2c(NCCNCCO)ccc(NCCNCCO)c21` [MITOXANTRONE], the IC50 entry (against Melanocortin receptor 5 (hek293); in [8]; in [9]; in assay [1]; in assay [10]; in assay [11]) was “Not Active” each time. Moreover, the concentration for half-maximal inhibition (IC50) entry (against Cannabinoid receptor 1; in [2]; against Substance-K receptor (cho); in [3]; in assay [4]; in assay [5]) was “Not Active” each time. Besides, the concentration for half-maximal inhibition (IC50) entry (against Melanocortin receptor 4; in [12]; in assay [13]; in [6]) was “Not Active” in each case. The Ki result in assay [8], in assay [9], in assay [10], in [11], in [12] and in assay [13] was “Not Active” in each case.

As for `CC(C)(O)c1ccccc1CC[C@@H](SCC1(CC(=O)O)CC1)c1cccc(/C=C/c2ccc3ccc(Cl)cc3n2)c1` [MONTELUKAST], the IC50 entry at Melanocortin receptor 5 (hek293) is “Not Active”; in assay [1], “Not Active”; on Cannabinoid receptor 1 it was “Not Active”; in [2], “Not Active”; on Substance-K receptor (read-out: IC50) it was 3820 nM; in [3], “Not Active”. For the same compound, the IC50 entry (in [4]; in assay [7] (cho-k1); in assay [5]; on Melanocortin receptor 4; in assay [6]) was “Not Active” in each case. Also, the Ki on Substance-K receptor came to 1270 nM.

For `CSc1ccc2c(c1)N(CCC1CCCCN1C)c1ccccc1S2` (centres undefined) [THIORIDAZINE], the IC50 result (against Melanocortin receptor 5 (hek293); in assay [1]; on Cannabinoid receptor 1; in [2]; on Substance-K receptor (cho); in assay [3]) was “Not Active” throughout. The half-inhibitory concentration (IC50) result (in assay [4]; in assay [5]; on Melanocortin receptor 4; in assay [6]) was “Not Active” each time.

As for `COc1cccc(C2(O)CCCCC2CN(C)C)c1` (centres undefined) [TRAMADOL], the IC50 entry (against Melanocortin receptor 5 (hek293); in [1]; against Cannabinoid receptor 1; in assay [2]; on Substance-K receptor (cho); in assay [3]) was “Not Active” throughout. Besides, the IC50 entry (in assay [4]; in assay [7] (cho-k1); in assay [5]; against Melanocortin receptor 4; in [6]) was “Not Active” each time.
